Measurements from ChEMBL document CHEMBL2413023, “Antiparasitic hybrids of Cinchona alkaloids and bile acids” (Eur J Med Chem, 2013).
Values after ≈ are worked out from the molar mass of the structure shown.

Key:
Plasmodium falciparum = assay: Antiplasmodial activity against erythrocytic stage of chloroquine-sensitive Plasmodium falciparum 3D7 assessed as parasite LDH activity by three-fold serial dilution method; assay type: functional, organism-based
[1] = system: Leishmania mexicana mexicana; assay: Antileishmanial activity against Leishmania mexicana mexicana MHOM/BZ/84/BEL46 promastigotes assessed as parasite LDH activity by three-fold serial dilution method; assay type: functional, organism-based
[2] = system: Trypanosoma brucei brucei; assay: Antitrypanosomal activity against Trypanosoma brucei brucei Lister 427 bloodstream form assessed as parasite LDH activity by three-fold serial dilution method; assay type: functional, organism-based
[3] = Selectivity index, ratio of IC50 for human WI38 cells to IC50 for Leishmania mexicana mexicana MHOM/BZ/84/BEL46 promastigotes; assay type: toxicity, cell-based, WI-38; details: read-out: Ratio IC50
in vitro = details: human, WI38 cells
Description: Selectivity index, ratio of IC50 for human WI38 cells to IC50 for Trypanosoma brucei brucei Lister 427 bloodstream form

[4] = Selectivity index, ratio of IC50 for human WI38 cells to IC50 for erythrocytic stage of chloroquine-sensitive Plasmodium falciparum 3D7; assay type: toxicity, cell-based, WI-38; details: read-out: Ratio IC50
WI-38 = assay: Cytotoxicity against human WI38 cells by MTT assay; assay type: cell-based

| Compound | IC50 (Plasmodium falciparum) [µg/mL] | IC50 [1] [µg/mL] | IC50 [2] [µg/mL] | selectivity ratio [3] | selectivity ratio (in vitro) | selectivity ratio [4] | IC50 (WI-38) [µg/mL] |
| --- | --- | --- | --- | --- | --- | --- | --- |
| C=C[C@H]1CN2CC[C@H]1C[C@H]2[C@H](O)c1cc(CC[C@@H](C)[C@H]2CC[C@H]3[C@@H]4[C@H](O)C[C@@H]5C[C@H](O)CC[C@]5(C)[C@H]4CC[C@]23C)nc2ccccc12 | 0.23 (≈ 0.359 µM) | 3.45 (≈ 5.38 µM) | 0.4 (≈ 0.624 µM) | 0.5 | 4.3 | 7.5 | 1.71 (≈ 2.67 µM) |
| Cc1ccc(C(=O)Nc2ccc(S(=O)(=O)O)c3cc(S(=O)(=O)O)cc(S(=O)(=O)O)c23)cc1NC(=O)c1cccc(NC(=O)Nc2cccc(C(=O)Nc3cc(C(=O)Nc4ccc(S(=O)(=O)O)c5cc(S(=O)(=O)O)cc(S(=O)(=O)O)c45)ccc3C)c2)c1 [SURAMIN] | – | – | 0.11 (≈ 0.0848 µM) | – | – | – | – |
| C=C[C@H]1CN2CC[C@H]1C[C@H]2[C@H](O)c1cc(CC[C@@H](C)[C@H]2CC[C@H]3[C@@H]4CC[C@@H]5C[C@H](O)CC[C@]5(C)[C@H]4CC[C@]23C)nc2ccc(OC)cc12 | 4.24 (≈ 6.47 µM) | > 20 | 3.53 (≈ 5.39 µM) | – | – | – | > 20 |
| C=C[C@H]1CN2CC[C@H]1C[C@H]2[C@@H](O)c1cc(CC[C@@H](C)[C@H]2CC[C@H]3[C@@H]4[C@H](OC(C)=O)C[C@@H]5C[C@H](OC(C)=O)CC[C@]5(C)[C@H]4CC[C@]23C)nc2ccc(OC)cc12 | 0.38 (≈ 0.503 µM) | 4.15 (≈ 5.5 µM) | 0.44 (≈ 0.583 µM) | 0.75 | 7.1 | 8.1 | 3.1 (≈ 4.11 µM) |
| CC[C@@]1(O)C(=O)OCc2c1cc1n(c2=O)Cc2cc3ccccc3nc2-1 [CAMPTOTHECIN] | – | – | – | – | – | – | 0.4 (≈ 1.15 µM) |
| C=C[C@H]1CN2CC[C@H]1C[C@H]2[C@@H](O)c1cc(CC[C@@H](C)[C@H]2CC[C@H]3[C@@H]4CC[C@@H]5C[C@H](OC(C)=O)CC[C@]5(C)[C@H]4CC[C@]23C)nc2ccc(OC)cc12 | 0.81 (≈ 1.16 µM) | 13.7 (≈ 19.6 µM) | 2.97 (≈ 4.26 µM) | 0.57 | 2.6 | 9.7 | 7.79 (≈ 11.2 µM) |
| C=C[C@H]1CN2CC[C@H]1C[C@H]2[C@@H](O)c1cc(CC[C@@H](C)[C@H]2CC[C@H]3[C@@H]4CC[C@@H]5C[C@H](O)CC[C@]5(C)[C@H]4CC[C@]23C)nc2ccccc12 | 0.86 (≈ 1.38 µM) | 4.08 (≈ 6.53 µM) | 3.01 (≈ 4.82 µM) | 0.97 | 1.3 | 4.6 | 3.97 (≈ 6.35 µM) |
| C=C[C@H]1CN2CC[C@H]1C[C@H]2[C@H](O)c1cc(CC[C@@H](C)[C@H]2CC[C@H]3[C@@H]4[C@H](OC(C)=O)C[C@@H]5C[C@H](OC(C)=O)CC[C@]5(C)[C@H]4CC[C@]23C)nc2ccc(OC)cc12 | 0.69 (≈ 0.914 µM) | 3.49 (≈ 4.62 µM) | 1.22 (≈ 1.62 µM) | 1.1 | 3.2 | 5.6 | 3.92 (≈ 5.19 µM) |
| C=C[C@H]1CN2CC[C@H]1C[C@H]2[C@@H](O)c1cc(CC[C@@H](C)[C@H]2CC[C@H]3[C@@H]4CC[C@@H]5C[C@H](OC(C)=O)CC[C@]5(C)[C@H]4CC[C@]23C)nc2ccccc12 | 2.26 (≈ 3.39 µM) | 12.1 (≈ 18.1 µM) | 1.26 (≈ 1.89 µM) | 0.58 | 5.6 | 3.1 | 7.02 (≈ 10.5 µM) |
| C=C[C@H]1CN2CC[C@H]1C[C@H]2[C@@H](O)c1cc(CC[C@@H](C)[C@H]2CC[C@H]3[C@@H]4[C@H](O)C[C@@H]5C[C@H](O)CC[C@]5(C)[C@H]4CC[C@]23C)nc2ccc(OC)cc12 | 0.14 (≈ 0.209 µM) | 3.86 (≈ 5.75 µM) | 0.37 (≈ 0.551 µM) | 0.51 | 5.3 | 14 | 1.95 (≈ 2.91 µM) |
| C=C[C@H]1CN2CC[C@H]1C[C@H]2[C@H](O)c1ccnc2ccccc12 [CINCHONIDINE] | 0.28 (≈ 0.951 µM) | 5.74 (≈ 19.5 µM) | 18.3 (≈ 62.1 µM) | 0.96 | – | > 71 | > 20 |
| C=C[C@H]1CN2CC[C@H]1C[C@H]2[C@H](O)c1cc(CC[C@@H](C)[C@H]2CC[C@H]3[C@@H]4CC[C@@H]5C[C@H](O)CC[C@]5(C)[C@H]4CC[C@]23C)nc2ccccc12 | 1.07 (≈ 1.71 µM) | 12.8 (≈ 20.5 µM) | 2.16 (≈ 3.46 µM) | 0.72 | 4.3 | 8.7 | 9.28 (≈ 14.8 µM) |
| C=C[C@H]1CN2CC[C@H]1C[C@H]2[C@H](O)c1cc(CC[C@@H](C)[C@H]2CC[C@H]3[C@@H]4[C@H](OC(C)=O)C[C@@H]5C[C@H](OC(C)=O)CC[C@]5(C)[C@H]4CC[C@]23C)nc2ccccc12 | 0.21 (≈ 0.29 µM) | 3.91 (≈ 5.39 µM) | 0.41 (≈ 0.565 µM) | 0.45 | 4.3 | 8.4 | 1.77 (≈ 2.44 µM) |
| C=C[C@H]1CN2CC[C@H]1C[C@H]2[C@H](O)c1cc(CC[C@@H](C)[C@H]2CC[C@H]3[C@@H]4CC[C@@H]5C[C@H](OC(C)=O)CC[C@]5(C)[C@H]4CC[C@]23C)nc2ccccc12 | 1.21 (≈ 1.81 µM) | 12.2 (≈ 18.3 µM) | 1.27 (≈ 1.9 µM) | 0.46 | 4.4 | 4.6 | 5.58 (≈ 8.37 µM) |
| C=C[C@H]1CN2CC[C@H]1C[C@@H]2[C@@H](O)c1ccnc2ccccc12 [CINCHONINE] | 0.09 (≈ 0.306 µM) | > 20 | > 20 | – | – | > 222 | > 20 |
| C=C[C@H]1CN2CC[C@H]1C[C@H]2[C@H](O)c1ccnc2ccc(OC)cc12 [QUININE] | 0.2 (≈ 0.616 µM) | > 20 | 6.87 (≈ 21.2 µM) | – | 1 | 32 | 6.56 (≈ 20.2 µM) |
| C=C[C@H]1CN2CC[C@H]1C[C@H]2[C@@H](O)c1cc(CC[C@@H](C)[C@H]2CC[C@H]3[C@@H]4[C@H](O)C[C@@H]5C[C@H](O)CC[C@]5(C)[C@H]4CC[C@]23C)nc2ccccc12 | 0.09 (≈ 0.14 µM) | 3.39 (≈ 5.29 µM) | 0.39 (≈ 0.608 µM) | 0.42 | 3.6 | 15.7 | 1.42 (≈ 2.22 µM) |
| C=C[C@H]1CN2CC[C@H]1C[C@H]2[C@H](O)c1cc(CC[C@@H](C)[C@H]2CC[C@H]3[C@@H]4[C@H](O)C[C@@H]5C[C@H](O)CC[C@]5(C)[C@H]4CC[C@]23C)nc2ccc(OC)cc12 | 0.3 (≈ 0.447 µM) | 4.67 (≈ 6.96 µM) | 0.41 (≈ 0.611 µM) | 0.98 | 11.1 | 15.5 | 4.57 (≈ 6.81 µM) |
| C=C[C@H]1CN2CC[C@H]1C[C@H]2[C@H](O)c1cc(CC[C@@H](C)[C@H]2CC[C@H]3[C@@H]4CC[C@@H]5C[C@H](OC(C)=O)CC[C@]5(C)[C@H]4CC[C@]23C)nc2ccc(OC)cc12 | 6.07 (≈ 8.71 µM) | 14 (≈ 20 µM) | 2.03 (≈ 2.91 µM) | 1.2 | 8 | 2.7 | 16.2 (≈ 23.2 µM) |
| C=C[C@H]1CN2CC[C@H]1C[C@H]2[C@@H](O)c1cc(CC[C@@H](C)[C@H]2CC[C@H]3[C@@H]4CC[C@@H]5C[C@H](O)CC[C@]5(C)[C@H]4CC[C@]23C)nc2ccc(OC)cc12 | 0.68 (≈ 1.04 µM) | 4.05 (≈ 6.18 µM) | 0.79 (≈ 1.21 µM) | 0.64 | 3.3 | 3.8 | 2.59 (≈ 3.95 µM) |
| C=C[C@H]1CN2CC[C@H]1C[C@H]2[C@@H](O)c1cc(CC[C@@H](C)[C@H]2CC[C@H]3[C@@H]4[C@H](OC(C)=O)C[C@@H]5C[C@H](OC(C)=O)CC[C@]5(C)[C@H]4CC[C@]23C)nc2ccccc12 | 0.19 (≈ 0.262 µM) | 4.11 (≈ 5.67 µM) | 0.43 (≈ 0.593 µM) | 0.47 | 4.5 | 10.2 | 1.93 (≈ 2.66 µM) |
| C[C@@H]1[C@H](O)[C@@H](C)/C=C/C=C/C=C/C=C/C=C/C=C/C=C/[C@H](O[C@@H]2O[C@H](C)[C@@H](O)[C@H](N)[C@@H]2O)C[C@@H]2O[C@](O)(C[C@@H](O)C[C@@H](O)[C@H](O)CC[C@@H](O)C[C@@H](O)CC(=O)O[C@H]1C)C[C@H](O)[C@H]2C(=O)O [AMPHOTERICIN B] | – | 0.1 (≈ 0.108 µM) | – | – | – | – | – |
| C=C[C@H]1CN2CC[C@H]1C[C@@H]2[C@@H](O)c1ccnc2ccc(OC)cc12 [QUINIDINE] | 0.06 (≈ 0.185 µM) | > 20 | 8.42 (≈ 26 µM) | – | 1.3 | 179 | 11.3 (≈ 34.8 µM) |
